Where “and” joins values, the source holds several entries; their conditions need not be identical. Equal entries are not always repeated. Where two headings read alike, the source gives them in different places.

The target in the test is Mtb NDH-2 (Mycobacterium tuberculosis, UniProt P95160). It is filed as biochemical.
Mtb NDH-2, sequence (P95160 whole entry): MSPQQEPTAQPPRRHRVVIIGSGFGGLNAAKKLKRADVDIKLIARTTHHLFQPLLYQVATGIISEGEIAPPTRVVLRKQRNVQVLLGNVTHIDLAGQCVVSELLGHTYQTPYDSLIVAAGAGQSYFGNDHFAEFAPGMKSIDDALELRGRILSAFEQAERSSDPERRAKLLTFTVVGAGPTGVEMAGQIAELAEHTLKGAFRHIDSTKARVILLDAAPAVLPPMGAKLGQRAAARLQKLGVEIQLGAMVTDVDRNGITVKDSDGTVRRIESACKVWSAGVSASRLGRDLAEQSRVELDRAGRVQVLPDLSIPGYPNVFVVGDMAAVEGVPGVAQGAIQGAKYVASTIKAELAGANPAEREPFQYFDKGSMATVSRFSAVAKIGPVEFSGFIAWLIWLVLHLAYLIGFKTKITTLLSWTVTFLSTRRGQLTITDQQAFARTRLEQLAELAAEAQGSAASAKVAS

In general, inhibition refers to how much of the control response was suppressed. Low values mean little suppression, high ones strong suppression. As for `COc1c(O)c(C)c(CC=C(C)C)c(O)c1OC` [UQ1H2], under “1.0 mM UQ1H2, 0.05 mM UQ1 as electron acceptor, membrane-bound NDH-2”, the inhibition was determined as 30 ± 10%. Moreover, the increase in activity result (UQ0 as electron acceptor, membrane-bound NDH-2) is “up to 5 fold”.
As a reminder, the Km is the substrate concentration at which the rate is half of its maximum. Take `COC1=C(OC)C(=O)C(C)=CC1=O` [UQ0]: the kcat came out at 570.0 ± 200 s^–1. Where the note is “[…], NADH oxidation with the quinone as electron acceptor, [NADH] varied”, the kcat worked out at 580.0 ± 170 s^–1. The kcat ([…], ratio plot, [UQ0] = 6.25[NADH]) turned out to be 330 ± 15 s^–1. Further, the Vmax (membrane-bound NDH-2, both with and without UQ1H2) is reported as 0.12 ± 0.01 A340 min^–1 nM^–1. For the same compound, the Michaelis-Menten constant (Km) (read-out: apparent KM value for UQ0, membrane-bound NDH-2, absence of UQ1H2 (Figure 6C)) is 350 ± 7 µM.
For the compound `NC(=O)C1=CN([C@@H]2O[C@H](COP(=O)(O)OP(=O)(O)OC[C@H]3O[C@@H](n4cnc5c(N)ncnc54)[C@H](O)[C@@H]3O)[C@@H](O)[C@H]2O)C=CC1` [NADH, nicotinamide adenine dinucleotide, reduced form], the Michaelis-Menten constant (Km) is, setting by setting: (read-out: KM for NADH (average), membrane-bound NDH-2 with UQ0, average) 280 µM; (read-out: KM^NADH) 240 µM and 320 µM.

Values taken from paper PMC3985514 (Biochemistry, 2014).
